Patent publication US20150331992A1, “CANCER PROGNOSIS AND THERAPY BASED ON SYNTHEIC LETHALITY” (Ramot at Tel-Aviv University Ltd., priority 2014, published 2015)

System: VHL-deficient and VHL-restored renal carcinoma cells (RCC4)
Experiment: Growth inhibition of VHL-deficient vs VHL-restored renal cells by drugs at mid-effective concentration
Type: cell-based
Conditions: mid-effective concentration of each drug; both cell lines in triplicates; FIG. 5
Procedure: A range of concentrations for each drug were tested to identify a suitable working concentration in which there was an effect on cells growth, but not complete death (which is more likely to be due to non-specific toxicity).

| SMILES | Sensitivity (percentage of growth inhibition) of VHL-deficient cells compared to isogenic cells in which pVHL was restored |
| --- | --- |
| CN(C)CCC=C1c2ccccc2CCc2ccccc21 [Amitriptyline] | significantly more sensitive |
| Nc1ccncc1 [Dalfampridine] | significantly more sensitive |
| CN(C)CCCN1c2ccccc2CCc2ccccc21 [Imipramine] | significantly more sensitive |
| C[N+]1(CCCCC[N+]2(C)CCCC2)CCCC1 [Pentolinium] | significantly more sensitive |
| COc1ccc(CCN(C)CCCC(C#N)(c2ccc(OC)c(OC)c2)C(C)C)cc1OC (centres unmarked) [Verapamil] | significantly more sensitive |
